Measurements from patent publication US12459974B2, “Bicyclic peptide ligands specific for Nectin-4” (priority 2018, dated 2025).
*1 amine or outer side, *2 acyl side, *3 side chain or, on linkers, in order; H or OH if unused. Where a SMILES comes first, the peptide text is derived from it. Bridges are numbered along the chain shown (N, C = ends). [ ]: non-standard residue; d: D form. TATA = O=C(CC[*:1])N1CN(C(=O)CC[*:2])CN(C(=O)CC[*:3])C1; Pip = O=C(O)[C@@H]1CCCCN1

Biological target: T1, human Nectin-4 (Homo sapiens, UniProt Q96NY8)
T1 sequence (Q96NY8 32-510): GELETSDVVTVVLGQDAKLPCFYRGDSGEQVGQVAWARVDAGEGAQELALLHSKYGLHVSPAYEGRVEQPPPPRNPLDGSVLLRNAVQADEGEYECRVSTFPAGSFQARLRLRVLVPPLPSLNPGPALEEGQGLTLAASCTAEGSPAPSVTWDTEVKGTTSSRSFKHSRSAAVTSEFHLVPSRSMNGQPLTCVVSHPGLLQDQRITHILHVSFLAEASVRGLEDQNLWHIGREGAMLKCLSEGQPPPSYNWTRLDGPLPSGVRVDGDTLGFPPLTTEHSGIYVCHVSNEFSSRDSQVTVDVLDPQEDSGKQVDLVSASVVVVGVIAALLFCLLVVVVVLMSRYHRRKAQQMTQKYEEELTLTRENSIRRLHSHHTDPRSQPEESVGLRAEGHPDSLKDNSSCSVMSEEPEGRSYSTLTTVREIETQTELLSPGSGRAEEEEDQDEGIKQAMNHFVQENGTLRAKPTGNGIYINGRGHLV
Assay: Nectin-4 competition binding assay (fluorescence polarisation)
Conditions: competition with fluorescent peptide SEQ ID NO: 217; read-out: Ki
Summary of the method: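 Ki derived by cubic-equation fit of mP data, with tracer peptide concentration, its Kd and Nectin-4 level as fixed inputs. Competition set up by adding 2-fold peptide dilutions (≤5% DMSO), then Nectin-4, then fluorescent peptide; polarisation measured as for direct binding.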

Row | Ki [µM] | Structure (SMILES)
1 | 0.0374 | CC[C@H](C)[C@@H]1NC(=O)[C@@H]2CCCN2C(=O)[C@H](Cc2ccc3ccccc3c2)NC(=O)[C@H](CO)NC(=O)[C@H](Cc2c[nH]c3ccccc23)NC(=O)[C@H](CC(N)=O)NC(=O)[C@H](CCCCN)NC(=O)[C@H](CCSC)NC(=O)[C@@H]2CSCCC(=O)N3CN(CN(C3)C(=O)CCSC[C@H](NC(C)=O)C(=O)N3CCC[C@H]3C(=O)N[C@@H](Cc3ccccc3)C(=O)NCC(=O)N2)C(=O)CCSC[C@@H](C(N)=O)NC(=O)[C@H](Cc2c[nH]c3ccccc23)NC1=O [BCY7592, Ac-(SEQ ID NO: 87)]
2 | 0.353 | CC[C@H](C)[C@@H]1NC(=O)[C@@H]2CCCN2C(=O)[C@H](Cc2c[nH]c3ccccc23)NC(=O)[C@H](CO)NC(=O)[C@H](Cc2c[nH]c3ccccc23)NC(=O)[C@H](CC(N)=O)NC(=O)[C@H](CCCCN)NC(=O)[C@H](CCSC)NC(=O)[C@@H]2CSCCC(=O)N3CN(CN(C3)C(=O)CCSC[C@H](NC(C)=O)C(=O)N3CCC[C@H]3C(=O)N[C@@H](Cc3ccccc3)C(=O)NCC(=O)N2)C(=O)CCSC[C@@H](C(N)=O)NC(=O)[C@H](Cc2ccccc2)NC1=O [BCY7596, Ac-(SEQ ID NO: 91)] (Ac-CPFGCMKNWSWPIFC-NH2; linker 1-5-15 via TATA)
3 | 0.169 | CC[C@H](C)[C@@H]1NC(=O)[C@@H]2CCCN2C(=O)[C@H](Cc2c[nH]c3ccccc23)NC(=O)[C@H](CO)NC(=O)[C@H](Cc2c[nH]c3ccccc23)NC(=O)[C@H](CC(N)=O)NC(=O)[C@H](CCCCN)NC(=O)[C@H](CCSC)NC(=O)[C@@H]2CSCCC(=O)N3CN(CN(C3)C(=O)CCSC[C@H](NC(C)=O)C(=O)N3CCC[C@H]3C(=O)N[C@@H](Cc3ccccc3)C(=O)NCC(=O)N2)C(=O)CCSC[C@@H](C(N)=O)NC(=O)[C@H](Cc2ccc(O)cc2)NC1=O [BCY7597, Ac-(SEQ ID NO: 92)] (Ac-CPFGCMKNWSWPIYC-NH2; linker 1-5-15 via TATA; C-terminus assumed)
4 | 0.021 | CC[C@H](C)[C@@H]1NC(=O)[C@@H]2CCCN2C(=O)[C@H](Cc2c[nH]c3ccccc23)NC(=O)[C@H](CO)NC(=O)[C@H](Cc2c[nH]c3ccccc23)NC(=O)[C@H](CC(N)=O)NC(=O)[C@@H]2CCCN2C(=O)[C@H](CCSC)NC(=O)[C@@H]2CSCCC(=O)N3CN(CN(C3)C(=O)CCSC[C@H](NC(C)=O)C(=O)N3CCC[C@H]3C(=O)N[C@@H](Cc3ccccc3)C(=O)NCC(=O)N2)C(=O)CCSC[C@@H](C(N)=O)NC(=O)[C@H](Cc2c[nH]c3ccccc23)NC1=O [BCY7614, Ac-(SEQ ID NO: 99)] (Ac-CPFGCMPNWSWPIWC-NH2; linker 1-5-15 via TATA; C-terminus assumed)
5 | 0.031 | CC[C@H](C)[C@@H]1NC(=O)[C@H](CCCNC(=N)N)NC(=O)[C@H](CC(N)=O)NC(=O)[C@@H]2CSCCC(=O)N3CN(CN(C3)C(=O)CCSC[C@H](NC(=O)[C@H](Cc3c[nH]c4ccccc34)NC(=O)[C@H](CCCCN)NC(=O)[C@H](C)NC(C)=O)C(=O)N[C@@H](C)C(=O)N3CCC[C@H]3C(=O)N[C@@H](CC(C)C)C(=O)N[C@@H](CO)C(=O)N[C@@H](CC(=O)O)C(=O)N[C@@H](Cc3ccc(O)cc3)C(=O)N[C@@H](Cc3c[nH]c4ccccc34)C(=O)N2)C(=O)CCSC[C@@H](C(N)=O)NC1=O [BCY7622, Ac-AKW-(SEQ ID NO: 34)] (Ac-AKWCAPLSDYWCNRIC-NH2; linker 4-12-16 via TATA; C-terminus assumed)
6 | 0.021 | CC[C@H](C)[C@@H]1NC(=O)[C@H](CCCNC(=N)N)NC(=O)[C@H](CC(N)=O)NC(=O)[C@@H]2CSCCC(=O)N3CN(CN(C3)C(=O)CCSC[C@H](NC(=O)[C@H](Cc3c[nH]c4ccccc34)NC(=O)[C@H](C)NC(=O)[C@H](CCC(N)=O)NC(C)=O)C(=O)N[C@@H](C)C(=O)N3CCC[C@H]3C(=O)N[C@@H](CC(C)C)C(=O)N[C@@H](CO)C(=O)N[C@@H](CC(=O)O)C(=O)N[C@@H](Cc3ccc(O)cc3)C(=O)N[C@@H](Cc3c[nH]c4ccccc34)C(=O)N2)C(=O)CCSC[C@@H](C(N)=O)NC1=O [BCY7623, Ac-QAW-(SEQ ID NO: 34)] (Ac-QAWCAPLSDYWCNRIC-NH2; linker 4-12-16 via TATA; C-terminus assumed)
7 | 0.571 | CC[C@H](C)[C@@H]1NC(=O)[C@H](CCCNC(=N)N)NC(=O)[C@H](CC(N)=O)NC(=O)[C@@H]2CSCCC(=O)N3CN(CN(C3)C(=O)CCSC[C@H](NC(=O)[C@H](C)NC(=O)[C@H](CCCCN)NC(=O)[C@H](CCC(N)=O)NC(C)=O)C(=O)N[C@@H](C)C(=O)N3CCC[C@H]3C(=O)N[C@@H](CC(C)C)C(=O)N[C@@H](CO)C(=O)N[C@@H](CC(=O)O)C(=O)N[C@@H](Cc3ccc(O)cc3)C(=O)N[C@@H](Cc3c[nH]c4ccccc34)C(=O)N2)C(=O)CCSC[C@@H](C(N)=O)NC1=O [BCY7624, Ac-QKA-(SEQ ID NO: 34)] (Ac-QKACAPLSDYWCNRIC-NH2; linker 4-12-16 via TATA; C-terminus assumed)
8 | 0.141 | CC[C@H](C)[C@@H]1NC(=O)[C@H](CCCNC(=N)N)NC(=O)[C@H](CC(N)=O)NC(=O)[C@@H]2CSCCC(=O)N3CN(CN(C3)C(=O)CCSC[C@H](NC(=O)[C@H](Cc3c[nH]c4ccccc34)NC(=O)[C@H](CCCCN)NC(=O)[C@H](CCC(N)=O)NC(C)=O)C(=O)N[C@@H](C)C(=O)N[C@@H](C)C(=O)N[C@@H](CC(C)C)C(=O)N[C@@H](CO)C(=O)N[C@@H](CC(=O)O)C(=O)N[C@@H](Cc3ccc(O)cc3)C(=O)N[C@@H](Cc3c[nH]c4ccccc34)C(=O)N2)C(=O)CCSC[C@@H](C(N)=O)NC1=O [BCY7625, Ac-QKW-(SEQ ID NO: 103)] (Ac-QKWCAALSDYWCNRIC-NH2; linker 4-12-16 via TATA; C-terminus assumed)
9 | 0.101 | CC[C@H](C)[C@@H]1NC(=O)[C@H](CCCNC(=N)N)NC(=O)[C@H](CC(N)=O)NC(=O)[C@@H]2CSCCC(=O)N3CN(CN(C3)C(=O)CCSC[C@H](NC(=O)[C@H](Cc3c[nH]c4ccccc34)NC(=O)[C@H](CCCCN)NC(=O)[C@H](CCC(N)=O)NC(C)=O)C(=O)N[C@@H](C)C(=O)N3CCC[C@H]3C(=O)N[C@@H](CC(C)C)C(=O)N[C@@H](C)C(=O)N[C@@H](CC(=O)O)C(=O)N[C@@H](Cc3ccc(O)cc3)C(=O)N[C@@H](Cc3c[nH]c4ccccc34)C(=O)N2)C(=O)CCSC[C@@H](C(N)=O)NC1=O [BCY7627, Ac-QKW-(SEQ ID NO: 104)] (Ac-QKWCAPLADYWCNRIC-NH2; linker 4-12-16 via TATA; C-terminus assumed)
10 | 0.019 | CC[C@H](C)[C@@H]1NC(=O)[C@H](CCCNC(=N)N)NC(=O)[C@H](C)NC(=O)[C@@H]2CSCCC(=O)N3CN(CN(C3)C(=O)CCSC[C@H](NC(=O)[C@H](Cc3c[nH]c4ccccc34)NC(=O)[C@H](CCCCN)NC(=O)[C@H](CCC(N)=O)NC(C)=O)C(=O)N[C@@H](C)C(=O)N3CCC[C@H]3C(=O)N[C@@H](CC(C)C)C(=O)N[C@@H](CO)C(=O)N[C@@H](CC(=O)O)C(=O)N[C@@H](Cc3ccc(O)cc3)C(=O)N[C@@H](Cc3c[nH]c4ccccc34)C(=O)N2)C(=O)CCSC[C@@H](C(N)=O)NC1=O [BCY7631, Ac-QKW-(SEQ ID NO: 106)] (Ac-QKWCAPLSDYWCARIC-NH2; linker 4-12-16 via TATA; C-terminus assumed)

Row | Structure (SMILES) | Ki [µM]
11 | CC[C@H](C)[C@@H]1NC(=O)[C@@H]2CCCCN2C(=O)[C@H](Cc2c[nH]c3ccccc23)NC(=O)[C@H](CO)NC(=O)[C@H](Cc2c[nH]c3ccccc23)NC(=O)[C@H](CC(N)=O)NC(=O)[C@H](CCCCN)NC(=O)[C@H](CCSC)NC(=O)[C@@H]2CSCCC(=O)N3CN(CN(C3)C(=O)CCSC[C@H](NC(C)=O)C(=O)N3CCC[C@H]3C(=O)N[C@@H](Cc3ccccc3)C(=O)NCC(=O)N2)C(=O)CCSC[C@@H](C(N)=O)NC(=O)[C@H](Cc2c[nH]c3ccccc23)NC1=O [BCY7595, Ac-(SEQ ID NO: 90)] (Ac-CPFGCMKNWSW[Pip]IWC-NH2; linker 1-5-15 via TATA) | 0.219
12 | CC[C@H](C)[C@@H]1NC(=O)[C@@H]2CCCN2C(=O)[C@H](Cc2c[nH]c3ccccc23)NC(=O)[C@H](CO)NC(=O)[C@H](Cc2c[nH]c3ccccc23)NC(=O)[C@H](CC(N)=O)NC(=O)[C@H](CCCCN)NC(=O)[C@H](CCSC)NC(=O)[C@@H]2CSCCC(=O)N3CN(CN(C3)C(=O)CCSC[C@H](NC(=O)[C@@H](CC(=O)O)NC(C)=O)C(=O)N3CCC[C@H]3C(=O)N[C@@H](Cc3ccccc3)C(=O)NCC(=O)N2)C(=O)CCSC[C@@H](C(N)=O)NC(=O)[C@H](Cc2c[nH]c3ccccc23)NC1=O [BCY7606, Ac-[dD]-(SEQ ID NO: 1)] (Ac-[dD]CPFGCMKNWSWPIWC-NH2; linker 2-6-16 via TATA) | 0.034
13 | CC[C@H](C)[C@@H]1NC(=O)[C@@H]2CCCN2C(=O)[C@H](Cc2c[nH]c3ccccc23)NC(=O)[C@H](CO)NC(=O)[C@H](Cc2c[nH]c3ccccc23)NC(=O)[C@H](CC(N)=O)NC(=O)[C@H](CCCCN)NC(=O)[C@H](CCSC)NC(=O)[C@@H]2CSCCC(=O)N3CN(CN(C3)C(=O)CCSC[C@H](NC(C)=O)C(=O)NCC(=O)N[C@@H](Cc3ccccc3)C(=O)NCC(=O)N2)C(=O)CCSC[C@@H](C(N)=O)NC(=O)[C@H](Cc2c[nH]c3ccccc23)NC1=O [BCY7607, Ac-(SEQ ID NO: 94)] (Ac-CGFGCMKNWSWPIWC-NH2; linker 1-5-15 via TATA) | 0.077
